Experimental data as given in US6355799B1, “Substituted benzene compounds, process for their preparation, and herbicidal and defoliant compositions containing them” (ISK Americas Incorporated, priority 1997, dated 2002).

Key:
Format in all cases: in vivo
[1] = tested on: redroot pigweed (Amaranthus retroflexus, AMARE); test: Pre-emerge test, greenhouse herbicide activity screening; conditions: rating scale 0-100, 14 days after application
How it was run: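 Compounds in acetone were track-sprayed at 15-1000 g ai/ha (187 l/ha) on sandy loam pots: pre-emerge one day after seeding, post-emerge at 2-3 leaf stage with 0.25% v/v non-ionic surfactant. Phytotoxicity was rated 14 days later on a 0 (no damage) to 100 (complete death) scale.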

[2] = tested on: barnyardgrass (Echinochloa crus-galli, ECHCG); test: as above; conditions: rating scale 0-100, 14 days after application
How it was run: (§1)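 Visual ratings on a 0-100 scale (0 no damage, 100 all plants dead) were taken at 14 days after treatment. Rates of 15-1000 g ai/ha in acetone, 187 l/ha, were sprayed onto soil one day after planting (pre-emerge) or onto 2-3 leaf plants with 0.25% v/v surfactant (post-emerge).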

[3] = tested on: common ragweed (Ambrosia artemisizfolia L., AMBEL); test: as above; conditions: rating scale 0-100, 14 days after application
How it was run: as §1

[4] = tested on: green foxtail (Setaria viridis, SETVI); test: as above; conditions: rating scale 0-100, 14 days after application
How it was run: as §1

[5] = tested on: ivyleaf morningglory (Ipomoea hederacea, IPOHE); test: as above; conditions: rating scale 0-100, 14 days after application
How it was run: as §1

[6] = tested on: johnsongrass (Sorghum halepense, SORHA); test: as above; conditions: rating scale 0-100, 14 days after application
How it was run: as §1

[7] = tested on: lambsquarters (Chenopodium album, CHEAL); test: as above; conditions: rating scale 0-100, 14 days after application
How it was run: as §1

[8] = tested on: large crabgrass (Digitaria sanguinalis, DIGSA); test: as above; conditions: rating scale 0-100, 14 days after application
How it was run: as §1

[9] = tested on: sicklepod (Cassia obtusifolia, CASOB); test: as above; conditions: rating scale 0-100, 14 days after application
How it was run: as §1

[10] = tested on: velvetleaf (Abutilon theophrasti, ABUTH); test: as above; conditions: rating scale 0-100, 14 days after application
How it was run: as §1

[11] = tested on: field corn (Zea mays L., var. Dekalb 535, CORN); test: Pre-emerge test, crop safety; conditions: rating scale 0-100, 14 days after application
How it was run: (§2)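 Rating: 0–100 visual injury, 14 DAA. Application: acetone, 187 l/ha, 15–1000 g ai/ha, flat-fan track sprayer with nozzle 40–45 cm above soil or canopy. Post-emerge runs used 0.25% v/v surfactant on 2–3 leaf plants.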

[12] = tested on: upland rice (Oryza sp., var. Tebonnet, RICE); test: Pre-emerge test, crop safety; conditions: rating scale 0-100, 14 days after application
How it was run: as §2

[13] = tested on: barnyardgrass (Echinochloa crus-galli, ECHCG); test: Post-emerge test, greenhouse herbicide activity screening; conditions: rating scale 0-100 (0 no damage, 100 complete death), 14 days after application
How it was run: (§3)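 Applied at 15–1000 g ai/ha from acetone in 187 l/ha spray volume. Post-emergence applications included 0.25% v/v non-ionic surfactant and reached plants sown 8–21 days before. Pre-emergence applications were incorporated by surface watering. Efficacy or crop damage was rated on a 0–100 scale after 14 days.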

[14] = tested on: common ragweed (Ambrosia artemisizfolia L., AMBEL); test: as above; conditions: rating scale 0-100 (0 no damage, 100 complete death), 14 days after application
How it was run: as §3

[15] = tested on: green foxtail (Setaria viridis, SETVI); test: as above; conditions: rating scale 0-100 (0 no damage, 100 complete death), 14 days after application
How it was run: as §3

[16] = tested on: ivyleaf morningglory (Ipomoea hederacea, IPOHE); test: as above; conditions: rating scale 0-100 (0 no damage, 100 complete death), 14 days after application
How it was run: as §3

[17] = tested on: johnsongrass (Sorghum halepense, SORHA); test: as above; conditions: rating scale 0-100 (0 no damage, 100 complete death), 14 days after application
How it was run: as §3

[18] = tested on: lambsquarters (Chenopodium album, CHEAL); test: as above; conditions: rating scale 0-100 (0 no damage, 100 complete death), 14 days after application
How it was run: as §3

[19] = tested on: large crabgrass (Digitaria sanguinalis, DIGSA); test: as above; conditions: rating scale 0-100 (0 no damage, 100 complete death), 14 days after application
How it was run: as §3

[20] = tested on: redroot pigweed (Amaranthus retroflexus, AMARE); test: as above; conditions: rating scale 0-100 (0 no damage, 100 complete death), 14 days after application
How it was run: as §3

[21] = tested on: sicklepod (Cassia obtusifolia, CASOB); test: as above; conditions: rating scale 0-100 (0 no damage, 100 complete death), 14 days after application
How it was run: as §3

[22] = tested on: velvetleaf (Abutilon theophrasti, ABUTH); test: as above; conditions: rating scale 0-100 (0 no damage, 100 complete death), 14 days after application
How it was run: as §3

[23] = tested on: field corn (Zea mays L., var. Dekalb 535, CORN); test: Post-emerge test, crop safety; conditions: rating scale 0-100 (0 no damage, 100 complete death), 14 days after application
How it was run: as §1

[24] = tested on: upland rice (Oryza sp., var. Tebonnet, RICE); test: Post-emerge test, crop safety; conditions: rating scale 0-100 (0 no damage, 100 complete death), 14 days after application
How it was run: as §1

## CCCCOC(=O)C(C)(Cl)Cc1c(OC)c(Cl)cc(F)c1-n1c(=O)cc(C(F)(F)F)n(C)c1=O (stereo not drawn) [14-36]
[1]; 63 g ai/ha
  Pre-emerge herbicidal activity, phytotoxicity rating AMARE: 75
[1]; 250 g ai/ha
  Pre-emerge herbicidal activity, phytotoxicity rating AMARE: 100
[2]; 63 g ai/ha
  Pre-emerge herbicidal activity, phytotoxicity rating ECHCG: 0
[2]; 250 g ai/ha
  Pre-emerge herbicidal activity, phytotoxicity rating ECHCG: 90
[3]; 63 g ai/ha
  Pre-emerge herbicidal activity, phytotoxicity rating AMBEL: 10
[3]; 250 g ai/ha
  Pre-emerge herbicidal activity, phytotoxicity rating AMBEL: 80
[4]; 63 g ai/ha
  Pre-emerge herbicidal activity, phytotoxicity rating SETVI: 10
[4]; 250 g ai/ha
  Pre-emerge herbicidal activity, phytotoxicity rating SETVI: 95
[5]; 63 g ai/ha
  Pre-emerge herbicidal activity, phytotoxicity rating IPOHE: 0
[5]; 250 g ai/ha
  Pre-emerge herbicidal activity, phytotoxicity rating IPOHE: 0
[6]; 63 g ai/ha
  Pre-emerge herbicidal activity, phytotoxicity rating SORHA: 0
[6]; 250 g ai/ha
  Pre-emerge herbicidal activity, phytotoxicity rating SORHA: 30
[7]; 63 g ai/ha
  Pre-emerge herbicidal activity, phytotoxicity rating CHEAL: 75
[7]; 250 g ai/ha
  Pre-emerge herbicidal activity, phytotoxicity rating CHEAL: 100
[8]; 63 g ai/ha
  Pre-emerge herbicidal activity, phytotoxicity rating DIGSA: 30
[8]; 250 g ai/ha
  Pre-emerge herbicidal activity, phytotoxicity rating DIGSA: 95
[9]; 63 g ai/ha
  Pre-emerge herbicidal activity, phytotoxicity rating CASOB: 0
[9]; 250 g ai/ha
  Pre-emerge herbicidal activity, phytotoxicity rating CASOB: 0
[10]; 63 g ai/ha
  Pre-emerge herbicidal activity, phytotoxicity rating ABUTH: 100
[10]; 250 g ai/ha
  Pre-emerge herbicidal activity, phytotoxicity rating ABUTH: 100
[11]; 63 g ai/ha
  Pre-emerge phytotoxicity rating, crop damage CORN: 0
[11]; 250 g ai/ha
  Pre-emerge phytotoxicity rating, crop damage CORN: 10
[12]; 63 g ai/ha
  Pre-emerge phytotoxicity rating, crop damage RICE: 10
[12]; 250 g ai/ha
  Pre-emerge phytotoxicity rating, crop damage RICE: 70
[13]; Rate 63 g ai/ha
  Post-emerge Herbicidal Activity, phytotoxicity rating ECHCG: 99
[13]; Rate 250 g ai/ha
  Post-emerge Herbicidal Activity, phytotoxicity rating ECHCG: 100
[14]; Rate 63 g ai/ha
  Post-emerge Herbicidal Activity, phytotoxicity rating AMBEL: 100
[14]; Rate 250 g ai/ha
  Post-emerge Herbicidal Activity, phytotoxicity rating AMBEL: 95
[15]; Rate 63 g ai/ha
  Post-emerge Herbicidal Activity, phytotoxicity rating SETVI: 85
[15]; Rate 250 g ai/ha
  Post-emerge Herbicidal Activity, phytotoxicity rating SETVI: 99
[16]; Rate 63 g ai/ha
  Post-emerge Herbicidal Activity, phytotoxicity rating IPOHE: 30
[16]; Rate 250 g ai/ha
  Post-emerge Herbicidal Activity, phytotoxicity rating IPOHE: 70
[17]; Rate 63 g ai/ha
  Post-emerge Herbicidal Activity, phytotoxicity rating SORHA: 20
[17]; Rate 250 g ai/ha
  Post-emerge Herbicidal Activity, phytotoxicity rating SORHA: 40
[18]; Rate 63 g ai/ha
  Post-emerge Herbicidal Activity, phytotoxicity rating CHEAL: 99
[18]; Rate 250 g ai/ha
  Post-emerge Herbicidal Activity, phytotoxicity rating CHEAL: 100
[19]; Rate 63 g ai/ha
  Post-emerge Herbicidal Activity, phytotoxicity rating DIGSA: 40
[19]; Rate 250 g ai/ha
  Post-emerge Herbicidal Activity, phytotoxicity rating DIGSA: 65
[20]; Rate 63 g ai/ha
  Post-emerge Herbicidal Activity, phytotoxicity rating AMARE: 100
[20]; Rate 250 g ai/ha
  Post-emerge Herbicidal Activity, phytotoxicity rating AMARE: 100
[21]; Rate 63 g ai/ha
  Post-emerge Herbicidal Activity, phytotoxicity rating CASOB: 20
[21]; Rate 250 g ai/ha
  Post-emerge Herbicidal Activity, phytotoxicity rating CASOB: 40
[22]; Rate 63 g ai/ha
  Post-emerge Herbicidal Activity, phytotoxicity rating ABUTH: 95
[22]; Rate 250 g ai/ha
  Post-emerge Herbicidal Activity, phytotoxicity rating ABUTH: 100
[23]; Rate 63 g ai/ha
  Post-emerge phytotoxicity rating CORN (crop damage): 95
[23]; Rate 250 g ai/ha
  Post-emerge phytotoxicity rating CORN (crop damage): 95
[24]; Rate 63 g ai/ha
  Post-emerge phytotoxicity rating RICE (crop damage): 35
[24]; Rate 250 g ai/ha
  Post-emerge phytotoxicity rating RICE (crop damage): 60
